Results: patent publication US20250091982A1, “Pharmaceutical Composition, Methods of Use Thereof for Treating Cocaine Addiction, and Novel Use of Hausp K444R Point Mutant Mouse” (PHARWAR BIOTECHNOLOGY, INC. PTE. LTD., priority 2022, published 2025)

What was measured:
SIAH1 = molecular target: T1, SIAH1 (Homo sapiens, UniProt Q8IUQ4); assay: E3-ligase auto ubiquitination assay (K48-linked polyubiquitination of HAUSP mediated by SIAH1); format: biochemical; conditions: 37° C., 1 hour, Western blot with Ub-K48 antibody, compared to vehicle; FIG. 14A, 14B
T1 sequence (Q8IUQ4 1-282): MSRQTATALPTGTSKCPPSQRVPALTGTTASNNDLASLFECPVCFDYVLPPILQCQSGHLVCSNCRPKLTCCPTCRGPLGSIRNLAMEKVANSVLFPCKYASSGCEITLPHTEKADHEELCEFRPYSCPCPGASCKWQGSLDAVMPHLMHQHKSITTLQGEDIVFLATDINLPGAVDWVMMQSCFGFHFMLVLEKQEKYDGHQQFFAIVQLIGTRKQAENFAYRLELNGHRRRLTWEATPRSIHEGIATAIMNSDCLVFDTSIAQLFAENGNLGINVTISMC
Description: SIAH1 mediates the K48-linked polyubiquitination of HAUSP. Therefore, for the ubiquitination assay, SIAH1 was incubated in the solution (0.25 mg/1 ml, total 100 μg) containing 20 mM Tris-HCl buffer (pH 8.0), 100 mM NaCl, 1 mM DTT and 40% glycerol and HAUSP (50 μg) was in 50 mM HEPES pH 7.5, 100 mM NaCl, 1 mM TCEP (tris (2-carboxyethyl) phosphine) buffer. […] The E3-ligase auto ubiquitination assay was performed by E3 Ligase Auto-Ubiquitilylation Assay Kit (Abcam, ab139469, UK).

[1] = tested on: HAUSP levels in SH-SY5Y cells; assay: Western blot of HAUSP in cocaine-treated SH-SY5Y cells; conditions: cocaine 200 μM with inhibitor, 24 hr; for HAUSP levels decreased by cocaine in SH-SY5Y cells (western blot): FIG. 14C; for relative protein expression ratios of HAUSP normalized with β-actin: quantified with ImageJ, FIG. 14D

Row | inhibition of K48-linked polyubiquitination of HAUSP mediated by SIAH1 (SIAH1) | Compound | HAUSP levels decreased by cocaine in SH-SY5Y cells (western blot) [1] | relative protein expression ratios of HAUSP normalized with β-actin [1]
1 | can inhibit | COCCNC(=O)c1ccc(Cl)cc1NC(=O)c1c(F)cccc1F [Compound 2-5, 4-Chloro-N-(2-methoxyethyl)-2-(2,6-difluorobenzamido)benzamide] | can restore | can restore
2 | can inhibit | COCCNC(=O)c1ccccc1NS(=O)(=O)c1ccccc1C [Compound 3-1, N-(2-Methoxyethyl)-2-((2-methylphenyl)sulfonamido)benzamide] | can restore | can restore
3 | can inhibit | COCCNC(=O)c1ccccc1NC(=O)c1ccccc1C [Compound 3-2, N-(2-Methoxyethyl)-2-(2-methylbenzamido)benzamide] | can restore | can restore
4 | can inhibit | COCCNC(=O)c1ccc(Br)cc1NC(=O)c1ccccc1C [Compound 4-1, 4-Bromo-N-(2-methoxyethyl)-2-(2-methylbenzamido)benzamide] | can restore | can restore
5 | can inhibit | COCCNC(=O)c1ccc(C)cc1NC(=O)c1c(C)cc(C)cc1C [Compound 5-2, N-(2-((2-Methoxyethyl)carbamoyl)-5-methylphenyl)-2,4,6-trimethylbenzamide] | can restore | can restore
6 | can inhibit | CCCOCCNC(=O)c1ccc(Cl)cc1NC(=O)c1ccccc1C [Compound 7-1, 4-Chloro-N-(2-propoxyethyl)-2-(2-methylbenzamido)benzamide] | can restore | can restore
7 | can inhibit | CC(C)(C)C(=O)Oc1ccc(S(=O)(=O)Nc2ccccc2C(=O)NCCO)cc1 [Compound 12-1] | can restore | can restore

Continued, compound first:

Row | Compound | inhibition of K48-linked polyubiquitination of HAUSP mediated by SIAH1 (SIAH1) | HAUSP levels decreased by cocaine in SH-SY5Y cells (western blot) [1] | relative protein expression ratios of HAUSP normalized with β-actin [1]
8 | Cc1ccccc1C(=O)OCCOC(=O)c1ccc(Cl)cc1N [Compound 1-1, 2-((2-Methylbenzoyl)oxy) ethyl 2-amino-4-chlorobenzoate] | can inhibit | can restore | can restore
9 | COCCNC(=O)c1ccc(Cl)cc1NS(=O)(=O)c1ccccc1C [Compound 2-1, 4-Chloro-N-(2-methoxyethyl)-2-((2-methylphenyl)sulfonamido)benzamide] | can inhibit | can restore | can restore
10 | COCCNC(=O)c1ccc(Cl)cc1NS(=O)(=O)c1c(C)cc(C)cc1C [Compound 2-4, 4-Chloro-N-(2-methoxyethyl)-2-((2,4,6-trimethylphenyl)sulfonamido)benzamide] | can inhibit | can restore | can restore
11 | COCCNC(=O)c1ccc(Br)cc1NC(=O)c1c(C)cc(C)cc1C [Compound 4-2, N-(5-Bromo-2-((2-methoxyethyl)carbamoyl)phenyl)-2,4,6-trimethylbenzamide] | can inhibit | can restore | can restore
12 | CCOCCNC(=O)c1ccc(Cl)cc1NC(=O)c1ccccc1C [Compound 6-1, 4-Chloro-N-(2-ethoxyethyl)-2-(2-methylbenzamido)benzamide] | can inhibit | can restore | can restore
13 | Cc1ccccc1S(=O)(=O)Nc1ccccc1C(=O)NCCO [Compound 12-2, N-(2-hydroxyethyl)-2-(2-methylphenylsulfonamido)benzamide] | can inhibit | can restore | can restore
